# Data: PMC12040169 (PLOS Biology, 2025)
# Assay: in vitro
# Conditions: human, hela cells, % viability
row,SMILES,"viability at 28.5 h, 10 µM [%]"
1,CC(NS(=O)(=O)c1ccc([N+](=O)[O-])cc1)C(=O)O (stereo not shown) [CBK261834],90.5
2,O=[N+]([O-])c1cc(C(F)(F)F)ccc1NC(CO)(CO)CO [CBK261838],88.4
3,Cc1nonc1NC(=O)CN1CCCCC1 [CBK261839],110
4,Cc1nonc1NC(=O)CN1CCCC1 [CBK261840],109
5,COc1cc(/C=N/c2ccc(/N=C/c3cc(Br)c(O)c(OC)c3)cc2)cc(Br)c1O [CBK261843],82.7
6,O=C(O)/C(O)=C/C(=O)c1ccc(F)cc1 [CBK261844],89.4
7,COc1ccc(O)c(CN(C)CCN(C)C)c1 [CBK261854],89.4
8,COc1ccc(CCN(C)Cc2ccncc2)cc1OC [CBK261861],98.4
9,O=[N+]([O-])c1ccccc1/C=C/CN1CCN(C/C=C/c2ccccc2)CC1 [CBK261864],93
10,CN(C)CCN(Cc1ccccc1)Cc1c(F)cccc1Cl [CBK261867],112
11,CCOC(=O)N1CCN(Cc2ccc(O)c(OC)c2)CC1 [CBK261873],98.5
12,CC(CCN1CCN(CCO)CC1)c1ccccc1 (stereo not shown) [CBK261876],102
13,c1ccc(CCCN2CCN(Cc3ccccc3)CC2)cc1 [CBK261878],90.1
14,CC(CCN1CCN(C)CC1)c1ccccc1 (stereo not shown) [CBK261881],88.5
15,COc1cc(CN2CCN(C/C=C/c3ccccc3)CC2)cc(I)c1O [CBK261882],91.7
16,COc1ccc(CN2CCN(C)CC2)cc1OCc1ccccc1 [CBK261886],88.2
17,COc1ccccc1/C=C/CN(C)CCN(C)C [CBK261888],88.5
18,CN(C/C=C/c1ccccc1[N+](=O)[O-])CCc1ccccn1 [CBK261890],92.5
19,Cl/C(=C\c1ccccc1)CN1CCOCC1 [CBK261892],114
20,COc1ccc(CN2CCN(c3ccc(F)cc3)CC2)cc1OCc1ccccc1 [CBK261894],95
21,CC(O)CN(CC(C)O)CC1CC2C=CC1C2 (stereo not shown) [CBK261896],90.4
22,COc1cc(CN2CCN(c3cc(C)ccc3C)CC2)ccc1OCc1ccccc1 [CBK261898],86.6

row,SMILES,"viability at 28.5 h, 10 µM [%]"
1,COc1ccc(CN2CCN(c3ccccc3F)CC2)cc1OCc1ccccc1 [CBK261900],115
2,CC(CCN1CCN(Cc2ccccc2)CC1)c1ccccc1 (stereo not shown) [CBK261902],89.1
3,CN(C)c1ccc(/C=C/CN2CCN(c3ccc([N+](=O)[O-])cc3)CC2)cc1 [CBK261904],96.9
4,COc1cccc(CN(C)CCN(C)C)c1O [CBK261905],102
5,OCCN(CCO)CC1CC=CCC1 (stereo not shown) [CBK261907],108
6,OCCN(Cc1ccccc1)Cc1ccc(Cl)c(Cl)c1 [CBK261908],117
7,COc1ccc(CCN(C)Cc2ccccn2)cc1OC [CBK261912],88.8
8,COc1ccc2ccccc2c1CN1CCN(Cc2ccccc2)CC1 [CBK261913],98.5
9,CCN(CCC(C)c1ccccc1)CCN(C)C (stereo not shown) [CBK261914],94.6
10,Fc1ccc(N2CCN(Cc3cccc(OCc4ccccc4)c3)CC2)cc1 [CBK261916],94.6
11,CCN(CC)CCN(C)C1CCN(C)CC1 [CBK261917],94.7
12,CCCN1CCC(N2CCN(CCO)CC2)CC1 [CBK261920],79.9
13,CN(C)c1ccc(CN(CCO)CCO)cc1 [CBK261921],88.3
14,C(=C\c1ccccc1)/CN1CCN(C2CCN(CCc3ccccc3)CC2)CC1 [CBK261923],108
15,CCn1c2ccccc2c2cc(CN(CCN(C)C)Cc3ccccc3)ccc21 [CBK261924],102
16,CN1CCC(N(C)C2CCN(Cc3ccccc3)CC2)CC1 [CBK261925],85.8
17,c1ccc(CCN2CCC(N3CCOCC3)CC2)cc1 [CBK261928],85.2
18,CN(C)CCN(C)C1CCN(Cc2ccccc2)CC1 [CBK261930],102
19,S=C(Nc1ccccc1)NC1C2CN3CCN(C2)CC1(c1ccccc1)C3 (stereo not shown) [CBK261936],88.6
20,CC(=O)Nc1ccccc1/C=C/c1ccc2c(C)cc(C)c(O)c2n1 [CBK261937],106
21,CC(C)(C)c1cc(CCCOC(=O)CNc2ccccc2)cc(C(C)(C)C)c1O [CBK261939],101
22,O=C(O)CCNS(=O)(=O)c1ccc(Br)cc1 [CBK261941],90.6

row,SMILES,"viability at 28.5 h, 10 µM [%]"
1,COc1ccc(C(CC(=O)O)C(=O)O)cc1OC (stereo not shown) [CBK261943],90.4
2,O=C(CNC(=O)c1cccc(Cl)c1)N/N=C/C=C/c1ccccc1 [CBK261947],90.4
3,O=[N+]([O-])c1ccc(NCCNS(=O)(=O)c2ccccc2)cc1 [CBK261948],96.1
4,CCN(CC)CCOc1c(C)cccc1Cl [CBK261950],95.9
5,CC1(C)CC(NC(=O)C(=O)NC2CC(C)(C)NC(C)(C)C2)CC(C)(C)N1 [CBK261951],98.9
6,O=C(CNC(=O)c1ccccc1F)N/N=C/c1cccs1 [CBK261953],97.8
7,COc1c(O)ccc(/C=N/NC(=O)COc2c(Br)cc(Br)cc2Br)c1[N+](=O)[O-] [CBK261957],95.9
8,O=C(N/N=C\c1ccc([N+](=O)[O-])o1)c1nc(-c2ccccc2)cc(-c2ccccc2)n1 [CBK261958],95.5
9,CC(C)(C)c1cc(CCC(=O)N/N=C/c2ccco2)cc(C(C)(C)C)c1O [CBK261960],110
10,O=C(N/N=C\c1cccc(O)c1)C(=O)N/N=C/c1cccc(O)c1 [CBK261962],87.6
11,CC(C)(C)c1cc(CCC(=O)N2CCN(C(=O)CCc3cc(C(C)(C)C)c(O)c(C(C)(C)C)c3)CC2)cc(C(C)(C)C)c1O [CBK261963],91.1
12,COc1ccccc1/C=N/NC(=O)COc1c(Br)cc(Br)cc1Br [CBK261966],95.2
13,NNC(=O)CNS(=O)(=O)c1ccccc1 [CBK261967],97.9
14,O=C(CCC(=O)Nc1ccccc1)N/N=C/c1ccco1 [CBK261968],108
15,O=C(CNC(=O)c1ccccc1)N/N=C/c1ccc(C(=O)O)cc1 [CBK261976],102
16,Nc1ccc(Oc2ccc3nc4c5cc(I)ccc5c5ccc(I)cc5c4nc3c2)cc1 [CBK261978],87.6
17,O=C1c2ccccc2-c2onc3c(NCc4ccccc4)cc(Nc4ccccc4)c1c23 [CBK261979],84
18,C/C(=C\C(=O)NC1CC(C)(C)NC(C)(C)C1)NC1CC(C)(C)NC(C)(C)C1 [CBK261982],113
19,Cc1ccc(S(=O)(=O)N=C2NCN(CC(=O)O)CN2)cc1 [CBK261983N],93.6
20,CC1(C)CC(NC(=O)CCc2cc(C(C)(C)C)c(O)c(C(C)(C)C)c2)CC(C)(C)N1 [CBK261986],88.9
21,Nc1nonc1-n1nnc(C(=O)N/N=C2\CCc3ccccc32)c1-c1ccccc1 [CBK261988],95.1
22,COc1ccccc1C(=O)NCC(=O)N/N=C/c1ccc(N(C)C)cc1 [CBK261989],104

# Same assay, conditions: human, hela cells, % viability, bulk resorufin, single well
row,SMILES,"viability at 28.5 h, 10 µM [%]"
1,CCN(CC)CCN(C)Cc1ccc2ccc3cccc4ccc1c2c34 [CBK261859],103
